Where “and” joins values, the source holds several entries; their conditions need not be identical. Identical values can stand only once. Calls of active or inactive are those of the source.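 Rule for the calls: active = compounds cutting yeast growth whose half-maximal concentration is at most twice their top valid dose; inconclusive = flat growth loss of 30 to 70 percent, or poor fit; inactive = the rest.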

The first assay relates to Candida glabrata growth in glycerol, OD600, 48 h. The assay can be described thus: C. glabrata growth inhibition on glycerol, dose response, glycerol medium, OD600, powder samples, set 2 (AID 623903).
Settings: not given
What is called AC50 is the midpoint of the concentration-response curve, whichever way the signal moves. For `CCOC(=O)N1C(=O)C2(CCCC2)N(c2ccc(C)cc2)C1=S`, the concentration at half-maximal activity (AC50) is 315 nM.
As for `CCOC(=O)N1C(=O)C2(CCCCC2)N(c2ccc(Cl)cc2)C1=S`, the AC50 was less than 23.5 nM.
For `CCOC(=O)N1C(=O)C2(CCCCC2)N(c2ccc(CC)cc2)C1=S`, the AC50 was 133 nM.
For `CCOC(=O)N1C(=O)C2(CCCCC2)N(C(C)C)C1=S`, the half-maximal activity concentration (AC50) was 2750 nM.
As to `CCOC(=O)N1C(=O)C2(CCC2)N(c2ccc(C)cc2)C1=S`, the half-maximal activity concentration (AC50) is 2510 nM.
Take `Cc1ccc(N2C(=S)N(C(=O)OCc3ccccc3)C(=O)C23CCCCC3)cc1`: the AC50 was 5540 nM.
Regarding `CCCCN1C(=O)C2(CCCCC2)N(c2ccc(C)cc2)C1=S`, the AC50 is > 12000 nM (inactive).
`CCOC(=O)N1C(=O)C2(CCCCC2)N(c2ccc(C(C)C)cc2)C1=S`: the AC50 is 829 nM.
On the same count and under the same terms, the figure for `CCOC(=O)N1C(=S)N(c2ccc(C)cc2)C2(CCCCC2)C1=NCc1ccccc1` is 3750 nM.
Regarding `CCCC(=O)N1C(=O)C2(CCCCC2)N(c2ccc(C)cc2)C1=S`, the concentration at half-maximal activity (AC50) was 102 nM.
Turning to `CCOC(=O)N1C(=O)C2(CCCCC2)N(c2ccc(OC)cc2)C1=S`, the AC50 is 255 nM.
In the case of `COC(=O)N1C(=O)C2(CCCCC2)N(c2ccc(C)cc2)C1=S`, the AC50 is 136 nM.
Regarding `CCOC(=O)N1C(=O)C2(CCCCC2)N(c2ccccc2C)C1=S`, the AC50 was 541 nM.
As to `CCOC(=O)N1C(=O)C2(CCCCC2)N(c2ccc(C(C)(C)C)cc2)C1=S`, the AC50 was 1980 nM.
Turning to `CCOC(=O)N1C(=O)C2(CCCCC2)N(c2ccc(C)cc2)C1=S`, the half-maximal activity concentration (AC50) is 56.4 nM and 45.2 nM.
The same measure, in the same setting: with `CC1/C=C/C=C\C=C\C=C\C=C\C=C\C=C\C(O[C@H]2OC(C)C(O)C(N)C2O)CC2OC(O)(CC(O)CC(O)C(O)CCC(O)CC(O)CC(=O)OC(C)C(C)C1O)CC(O)C2C(=O)O` (stereo partly drawn) the figure was 205 nM; with `Cc1ccc(N2C(=S)N(C(=O)OC(C)C)C(=O)C23CCCCC3)cc1`, 638 nM.
For `CCOC(=O)N1C(=O)C2(CCCCC2)N(c2ccc(F)cc2)C1=S`, the AC50 was less than 23.5 nM.
As to `CCOC(=O)N1C(=O)C2(CCCCC2)N(c2ccc(C#N)cc2)C1=S`, the AC50 was 67.2 nM.
On to `CCOC(=O)N1C(=O)C2(CCCCC2)N(c2cccc(C)c2)C1=S`, for which the AC50 is 86.6 nM.
Turning to `CCCOC(=O)N1C(=O)C2(CCCCC2)N(c2ccc(C)cc2)C1=S`, the half-maximal activity concentration (AC50) was 95.3 nM.
For `Cc1ccc(N2C(=S)NC(=O)C23CCOCC3)cc1`, the AC50 was > 12000 nM (inactive).
The same measure, in the same setting: the figure for `CCCCN1C(=O)N(c2ccc(C)cc2)C2(CCCCC2)C1=S` is > 12000 nM (inactive); for `CCOC(=O)N1C(=O)C2(CCOCC2)N(c2ccc(C)cc2)C1=S` it is 1480 nM.
For `CCCc1ccc(N2C(=S)N(C(=O)OCC)C(=O)C23CCCCC3)cc1`, the AC50 was 629 nM.
`CCOC(=O)N1C(=O)C2(CCCCC2)N(c2ccc(C(F)(F)F)cc2)C1=S`: the concentration at half-maximal activity (AC50) was 44.3 nM.
For `CCOC(=O)N1C(=O)C2(CCCCC2)N(Cc2ccccc2)C1=S`, the half-maximal activity concentration (AC50) was less than 23.5 nM.
On to `CCOC(=O)N1C(=O)C2(CCCCC2)N(c2ccccc2)C1=S`, for which the AC50 was 28.9 nM.
For the compound `CCOC(=O)N1C(=O)C2(CCCCC2)N(c2ccc(-c3ccccc3)cc2)C1=S`, the AC50 is 242 nM.

Test system in a further assay: not listed separately
The assay is described as above. The conditions noted are these: Candida glabrata growth in glycerol, OD600, 48 h; at 6 µM (top of the series).
Take `CCOC(=O)N1C(=S)NC(=O)C12CCCCC2`: the growth change, negative = inhibition was 11.1% (inactive).
Consider `Cc1ccc(N2C(=S)NC(=O)C23CCCCC3)cc1`, for which the growth change, negative = inhibition is -3.05% (inactive).
In the case of `CCOC(=O)N1C(=S)N(c2ccc(C)cc2)C(=O)C12CCCCC2`, the growth change, negative = inhibition was 14.3% (inactive).
On the same count and under the same terms, with `CCOC(=O)N1C(=O)C(C)(C)N(c2ccc(C)cc2)C1=S` the figure was -13.4% (inactive); with `Cc1ccc(N2C(=S)N(S(C)(=O)=O)C(=O)C23CCCCC3)cc1`, 1.2% (inactive); with `Cc1ccc(N2C(=O)NC(=O)C23CCCCC3)cc1`, 44.5% (inactive).
Consider `CCOC(=O)N1C(=O)C2(CCCCC2)NC1=S`, for which the growth change, negative = inhibition is -2.7% (inactive).
As to `O=C1NC(=S)NC12CCCCC2`, the growth change, negative = inhibition was 10.1% (inactive).
As for `O=C1NC(=S)N(Cc2ccccc2)C12CCCCC2`, the growth change, negative = inhibition is -0.552% (inactive).
For `CCOC(=O)N1C(=O)N(c2ccc(C)cc2)C2(CCCCC2)C1=O`, the growth change, negative = inhibition was -38.8% (inactive).
As to `Cc1ccc(N2CC(=O)NC2=O)cc1`, the growth change, negative = inhibition is 28.9% (inactive).
In the case of `Cc1ccc(N2CC(=O)NC2=S)cc1`, the growth change, negative = inhibition was 3.32% (inactive).
On the same count and under the same terms, with `Cc1ccc(N2C(=S)NC(=O)C23CCCC3)cc1` the figure was -31.4% (inactive).
As for `Cc1ccc(N2C(=O)C3(CCCCC3)NC2=S)cc1`, the growth change, negative = inhibition was 5.63% (inactive).
With `Cc1ccc(N2C(=S)NC(=O)C2(C)C)cc1`, the growth change, negative = inhibition was -2.42% (inactive).
Same read-out and setting: with `Cc1ccc(N2C(=O)C(=O)NC2=S)cc1` the figure was 19.6% (inactive); with `CC(C)N1C(=S)NC(=O)C12CCCCC2`, 5.61% (inactive).
On the same count and under the same terms, the figure for `CCCCN1C(=O)N(c2ccc(C)cc2)C2(CCCCC2)C1=O` is -2.19% (inactive).
On to `Cc1ccc(N2C(=S)N(C(=O)Oc3ccccc3)C(=O)C23CCCCC3)cc1`, for which the growth change, negative = inhibition is -4.17% (inactive).
Take `O=C1NC(=S)N(c2ccc(F)cc2)C12CCCCC2`: the growth change, negative = inhibition was -17.4% (inactive).
Turning to `O=C1NC(=S)N(c2ccccc2)C12CCCCC2`, the growth change, negative = inhibition was 21.1% (inactive).
Same read-out and setting: with `Cc1ccc(N2C(=S)N(C)C(=O)C23CCCCC3)cc1` the figure was -20.3% (inactive).
`Cc1ccc(N2C(=O)N(C)C(=O)C23CCCCC3)cc1`: the growth change, negative = inhibition was 24.2% (inactive).
On the same count and under the same terms, with `Cc1ccc(N2C(=S)NC(=O)C23CCC3)cc1` the figure was 3.27% (inactive).
